Read-outs that look alike come from different tables or passages of the source. Starred links: 1 amine or outer side, 2 acyl side, 3 side chain; linkers in the order of their positions; H or OH if unused. Positions of bridges follow the written chain, without caps; N, C: chain ends. Non-standard residues stand in square brackets, D forms with d. Residues, ends and D or L forms follow the SMILES beside them. *: point of attachment. NMeF = CN[C@@H](Cc1ccccc1)C(=O)O; NMeGABA = CN(CCCC(=O)[*:2])[*:1]; NMeL = CN[C@@H](CC(C)C)C(=O)O; NMeV = CN[C@H](C(=O)O)C(C)C; NMeA = CN[C@@H](C)C(=O)O; Piperidide = C1CCN(*)CC1; Me2NCH2CH2 = CN(C)CC*; NBuGly = CCCCNCC(=O)O; NPrGly = CCCNCC(=O)O; tBu = CC(C)(C)*
Assay: Caco-2 membrane permeability, improved method as used in the following Examples (96-well, 20 to 24 h preincubation)
Assay type: in vitro ADME
Conditions: human
Experimental: In the following Examples, membrane permeability was measured in accordance with the improved method established as described above. Specifically, Caco-2 cells were cultured on a 96-well Transwell for three weeks, after which DMEM+FaSSIF (1% DMSO)+compound were added to the apical side and DMEM was added to the basal side, and the cells were preincubated at 5% CO2, 37° C., and 80 rpm for 20 to 24 hours. Following the preincubation, measurement of membrane permeability was initiated by removing the preincubation solution on the apical and basal sides by suction, washing the membrane, and adding FaSSIF/HBSS buffer (1% DMSO) (pH 6.0) containing the compound to the apical side and HBSS buffer (4% BSA) (pH 7.4) to the basal side. Each well was shaken at 5% CO2, 37° C., and 80 rpm, and 180 minutes after the initiation, the sample on the basal side was collected and the permeation amount was measured by LC/MS. The membrane permeability coefficient (Papp) was calculated from the permeation amount. Herein, the terms “Caco-2 (cm/sec)” in the columns in the tables and “Papp (cm/sec)” are used in the same meaning.

| SMILES | Papp A→B at 180 min (Caco-2, Caco-2) [×10⁻⁶ cm/s] | Papp A→B at 180 min (Papp, Table 25, cyclic peptides containing Ser(Et-2-NMe2) or Gln(Ms), not in table head, read-out: Caco-2) [×10⁻⁶ cm/s] |
| --- | --- | --- |
| CCCN1CC(=O)N(C)[C@@H](CC(C)C)C(=O)N[C@@H](COC(C)(C)C)C(=O)N(C)[C@@H](Cc2ccccc2)C(=O)N(C)[C@@H](C(C)C)C(=O)N[C@H](C(=O)N2CCCCC2)CC(=O)N[C@H](C(C)C)C(=O)N(C)[C@@H](Cc2ccccc2)C(=O)N[C@@H](COCCN(C)C)C(=O)N(C)[C@@H](CC(C)C)C(=O)N[C@@H]([C@@H](C)O)C1=O [pd50] ([dV][NMeF]S(Me2NCH2CH2)[NMeL]T[NPrGly][NMeL]S(tBu)[NMeF][NMeV]D-Piperidide; lactam N-11) | 0.15 | – |
| CCCCN1CC(=O)N(C)[C@@H](CC(C)C)C(=O)N[C@@H](COCCN(C)C)C(=O)N(C)[C@@H](Cc2ccccc2)C(=O)N(C)[C@@H](C(C)C)C(=O)N[C@H](C(=O)N2CCCCC2)CC(=O)N[C@H](CC(C)C)C(=O)N(C)[C@@H](Cc2ccccc2)C(=O)N[C@@H](CC(C)C)C(=O)N(C)[C@@H](CC(C)C)C(=O)N[C@@H]([C@@H](C)O)C1=O [pd51] ([dL][NMeF]L[NMeL]T[NBuGly][NMeL]S(Me2NCH2CH2)[NMeF][NMeV]D-Piperidide; lactam N-11) | 0.07 | – |
| CCCN1CC(=O)N(C)[C@@H](CC(C)C)C(=O)N[C@@H](COCCN(C)C)C(=O)N(C)[C@@H](Cc2ccccc2)C(=O)N(C)[C@@H](C(C)C)C(=O)N[C@H](C(=O)N2CCCCC2)CC(=O)N[C@H](C(C)C)C(=O)N(C)[C@@H](Cc2ccccc2)C(=O)N[C@@H](CC(C)C)C(=O)N(C)[C@@H](CC(C)C)C(=O)N[C@@H]([C@@H](C)O)C1=O [pd52] ([dV][NMeF]L[NMeL]T[NPrGly][NMeL]S(Me2NCH2CH2)[NMeF][NMeV]D-Piperidide; lactam N-11) | 0.12 | – |
| CCCCN1CC(=O)N(C)[C@@H](CC(C)C)C(=O)N[C@@H](COC(C)(C)C)C(=O)N(C)[C@@H](Cc2ccccc2)C(=O)N(C)[C@@H](C(C)C)C(=O)N[C@H](C(=O)N2CCCCC2)CC(=O)N[C@H](C(C)C)C(=O)N(C)[C@@H](Cc2ccccc2)C(=O)N[C@@H](COCCN(C)C)C(=O)N(C)[C@@H](CC(C)C)C(=O)N[C@@H]([C@@H](C)O)C1=O [pd53] ([dV][NMeF]S(Me2NCH2CH2)[NMeL]T[NBuGly][NMeL]S(tBu)[NMeF][NMeV]D-Piperidide; lactam N-11) | 0.14 | – |
| CC(C)C[C@@H]1NC(=O)[C@H](CC(C)C)N(C)C(=O)CCCN(C)C(=O)C[C@@H](C(=O)N2CCCCC2)NC(=O)[C@H](CC(C)C)N(C)C(=O)[C@H](CC(C)C)N(C)C(=O)[C@H]([C@@H](C)O)NC(=O)[C@H](CC(C)C)N(C)C(=O)[C@H](COCCN(C)C)NC(=O)[C@H](Cc2ccccc2)N(C)C(=O)[C@H](Cc2ccccc2)N(C)C1=O [pd54] ([NMeGABA][NMeL]L[NMeF][NMeF]S(Me2NCH2CH2)[NMeL]T[NMeL][NMeL]D-Piperidide; lactam N-11) | 0.073 | – |
| CC(C)C[C@@H]1NC(=O)[C@H](Cc2ccccc2)N(C)C(=O)[C@H](Cc2ccccc2)N(C)C(=O)[C@H](COCCN(C)C)NC(=O)[C@H](CC(C)C)N(C)C(=O)CCCN(C)C(=O)C[C@@H](C(=O)N2CCCCC2)NC(=O)[C@H](CC(C)C)N(C)C(=O)[C@H](CC(C)C)N(C)C(=O)[C@H]([C@@H](C)O)NC(=O)[C@H](CC(C)C)N(C)C1=O [pd55] ([NMeGABA][NMeL]S(Me2NCH2CH2)[NMeF][NMeF]L[NMeL]T[NMeL][NMeL]D-Piperidide; lactam N-11) | – | 0.1 |
| CCCCN1CC(=O)N(C)[C@@H](C(C)C)C(=O)N[C@H](C(=O)N2CCCCC2)CC(=O)N(C)[C@@H](C)C(=O)N[C@@H](COCCN(C)C)C(=O)N(C)[C@@H](CC(C)C)C(=O)N(C)[C@@H](Cc2ccccc2)C(=O)N[C@@H](CC(C)C)C(=O)N(C)[C@@H](Cc2ccccc2)C(=O)N(C)[C@@H](CC(C)C)C(=O)N[C@@H]([C@@H](C)O)C1=O [pd56] ([NMeA]S(Me2NCH2CH2)[NMeL][NMeF]L[NMeF][NMeL]T[NBuGly][NMeV]D-Piperidide; lactam N-11) | 0.12 | – |

— US20200131669A1, “CYCLIC PEPTIDE COMPOUND HAVING HIGH MEMBRANE PERMEABILITY, AND LIBRARY CONTAINING SAME” (Chugai Seiyaku Kabushiki Kaisha, priority 2017, published 2020)
